ChEMBL document CHEMBL5370659 (J Med Chem, 2023)
In brackets after ≈: the same amount, converted by molar mass.

Tests used:
[1] = AUCExtra in Sprague-Dawley rat at 20 mg/kg, po measured upto 1440 mins by LC-MS/MS analysis; format: ADME, organism-based; settings: in vivo, 24 h
[2] = Brain homogenate binding in mouse; format: ADME, tissue-based
[3] = Toxicity in C57BL/6N mouse assessed as body weight change at 1.5 to 15 mg/kg, po bid treated for 7 days; format: organism-based; settings: in vivo, 168 h, dose 1.5-15 mg/kg, time 7 day
[4] = AUCExtra in Sprague-Dawley rat at 10 mg/kg, iv measured upto 1440 mins by LC-MS/MS analysis; format: ADME, organism-based; settings: in vivo, 24 h
[5] = target: T1, Cytochrome P450 1A2 (Homo sapiens, UniProt P05177); assay: Inhibition of CYP1A2 in human liver microsome using phenacetin as substrate measured upto 50 uM incubated for 10 mins followed by NADPH addition incubated for 10 mins by LC/MS/MS analysis; format: ADME; settings: microsomes, 20 min
T1 sequence (P05177 whole entry): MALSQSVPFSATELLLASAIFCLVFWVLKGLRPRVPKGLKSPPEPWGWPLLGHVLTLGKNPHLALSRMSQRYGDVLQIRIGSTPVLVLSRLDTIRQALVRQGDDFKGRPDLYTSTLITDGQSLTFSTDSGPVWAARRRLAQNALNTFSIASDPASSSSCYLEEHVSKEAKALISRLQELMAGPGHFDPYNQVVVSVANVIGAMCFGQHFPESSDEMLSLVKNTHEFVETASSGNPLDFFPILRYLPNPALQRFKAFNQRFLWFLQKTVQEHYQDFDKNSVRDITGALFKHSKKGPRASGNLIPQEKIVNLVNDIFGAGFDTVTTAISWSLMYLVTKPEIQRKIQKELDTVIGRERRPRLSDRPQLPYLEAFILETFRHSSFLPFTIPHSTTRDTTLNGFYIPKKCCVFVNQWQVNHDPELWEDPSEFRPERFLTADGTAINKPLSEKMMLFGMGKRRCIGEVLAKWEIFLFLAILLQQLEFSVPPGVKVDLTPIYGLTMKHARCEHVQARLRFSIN

[6] = AUMCExtra in CD-1 (ICR) mouse at 50 mg/kg, po measured upto 1440 mins by LC-MS/MS analysis; format: ADME, organism-based; settings: in vivo, 24 h
[7] = Drug uptake in Sprague-Dawley rat lung at 20 mg/kg, po measured at 0.5 hrs by LC-MS/MS analysis; format: ADME, organism-based; settings: read-out: Drug uptake
[8] = Drug uptake in CD-1 (ICR) mouse brain at 50 mg/kg measured 2 hrs by LC-MS/MS analysis; format: ADME, organism-based; settings: read-out: Drug uptake
[9] = Half life in CD-1 (ICR) mouse at 50 mg/kg, po measured upto 1440 mins by LC-MS/MS analysis; format: ADME, organism-based; settings: in vivo
[10] = target: Cytochrome P450 2D6 (Homo sapiens, UniProt P10635); assay: Inhibition of CYP2D6 in human liver microsome using dextromethorphan as substrate measured upto 50 uM incubated for 10 mins followed by NADPH addition incubated for 10 mins by LC/MS/MS analysis; format: ADME; settings: microsomes, 20 min
Sequence of Cytochrome P450 2D6 (P10635 whole entry): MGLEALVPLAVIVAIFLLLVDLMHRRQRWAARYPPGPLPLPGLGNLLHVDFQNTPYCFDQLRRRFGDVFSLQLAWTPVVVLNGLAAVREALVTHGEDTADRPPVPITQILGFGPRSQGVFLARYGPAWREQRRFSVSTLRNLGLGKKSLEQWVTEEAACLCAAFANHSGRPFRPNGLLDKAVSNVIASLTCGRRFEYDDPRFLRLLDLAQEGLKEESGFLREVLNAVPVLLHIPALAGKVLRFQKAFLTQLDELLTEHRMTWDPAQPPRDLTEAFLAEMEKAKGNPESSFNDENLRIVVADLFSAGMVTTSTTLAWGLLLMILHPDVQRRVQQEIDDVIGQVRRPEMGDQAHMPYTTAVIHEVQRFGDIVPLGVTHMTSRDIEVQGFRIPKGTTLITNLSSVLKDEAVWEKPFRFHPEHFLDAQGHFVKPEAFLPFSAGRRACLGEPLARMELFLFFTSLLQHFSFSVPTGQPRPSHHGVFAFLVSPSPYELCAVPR

[11] = target: T2, Tryptophan 5-hydroxylase 1 (Homo sapiens) (UniProt P17752); assay: Binding affinity to […] (unknown origin) assessed as dissociation rate constant by surface plasmon resonance analysis
T2 sequence (whole entry): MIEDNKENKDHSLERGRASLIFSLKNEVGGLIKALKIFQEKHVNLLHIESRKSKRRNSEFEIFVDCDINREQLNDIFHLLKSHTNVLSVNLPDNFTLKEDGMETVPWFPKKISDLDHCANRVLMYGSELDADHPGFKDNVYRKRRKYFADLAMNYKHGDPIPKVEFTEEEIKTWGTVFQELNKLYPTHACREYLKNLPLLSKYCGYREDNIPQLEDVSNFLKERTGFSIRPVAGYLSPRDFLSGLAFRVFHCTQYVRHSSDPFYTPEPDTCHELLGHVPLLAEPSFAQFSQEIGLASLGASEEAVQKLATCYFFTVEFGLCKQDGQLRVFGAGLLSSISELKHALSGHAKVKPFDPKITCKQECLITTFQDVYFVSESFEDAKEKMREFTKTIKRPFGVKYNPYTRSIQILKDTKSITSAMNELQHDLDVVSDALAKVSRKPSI

[12] = MRT (0 to infinitive) in CD-1 (ICR) mouse at 50 mg/kg, po measured upto 1440 mins by LC-MS/MS analysis; format: ADME, organism-based; settings: in vivo
[13] = Drug uptake in Sprague-Dawley rat brain at 50 mg/kg, po measured at 0.5 hrs by LC-MS/MS analysis; format: ADME, organism-based; settings: read-out: Drug uptake
[14] = Reduction in serotonin level in C57BL/6N mouse duodenum at 15 mg/kg, po bid treated for 7 days by HPLC analysis relative to control; format: functional; settings: 168 h, time 7 day
[15] = AUC (0 to last) in Sprague-Dawley rat at 10 mg/kg, iv measured upto 1440 mins by LC-MS/MS analysis; format: ADME, organism-based; parameters: time < 1440 min, dose 10 mg/kg, route iv; settings: in vivo
[16] = Plasma concentration in Sprague-Dawley rat at 50 mg/kg, po measured at 2 hrs by LC-MS/MS analysis; format: ADME, organism-based
[17] = target: T2, Tryptophan 5-hydroxylase 1 (Homo sapiens); assay: Binding affinity to […] (unknown origin) assessed as association rate constant by surface plasmon resonance analysis
[18] = AUMCExtra in Sprague-Dawley rat at 10 mg/kg, iv measured upto 1440 mins by LC-MS/MS analysis; format: ADME, organism-based; settings: in vivo, 24 h
[19] = Clearance in Sprague-Dawley rat at 10 mg/kg, iv measured upto 1440 mins by LC-MS/MS analysis; format: ADME, organism-based; settings: in vivo
[20] = target: Large neutral amino acids transporter small subunit 1 (Homo sapiens, UniProt Q01650); assay: Inhibition of human LAT1 transfected in MDCK-II cells co-transfected with 4F2HC or GFP using [3H]-leucine as probe substrate at 20 uM incubated for 10 mins by scintillation counting analysis; format: cell-based
Sequence of Large neutral amino acids transporter small subunit 1 (Q01650 whole entry): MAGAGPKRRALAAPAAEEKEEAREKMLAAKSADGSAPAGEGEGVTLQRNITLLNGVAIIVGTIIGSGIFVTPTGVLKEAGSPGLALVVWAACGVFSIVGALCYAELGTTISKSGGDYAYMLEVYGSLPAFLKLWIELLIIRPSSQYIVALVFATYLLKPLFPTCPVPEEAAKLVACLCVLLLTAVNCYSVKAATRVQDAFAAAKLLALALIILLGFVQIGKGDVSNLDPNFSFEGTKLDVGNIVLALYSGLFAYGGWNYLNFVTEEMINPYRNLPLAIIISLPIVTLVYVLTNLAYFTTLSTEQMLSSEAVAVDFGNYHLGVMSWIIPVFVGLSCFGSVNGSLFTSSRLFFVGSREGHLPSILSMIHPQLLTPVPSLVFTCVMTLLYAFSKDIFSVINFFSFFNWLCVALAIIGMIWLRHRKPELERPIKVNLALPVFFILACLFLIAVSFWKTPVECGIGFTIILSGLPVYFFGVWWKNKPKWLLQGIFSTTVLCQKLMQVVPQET

[21] = Metabolic stability in human hepatocytes assessed as intrinsic clearance; format: ADME, cell-based, Hepatocyte; settings: read-out: CLH
[22] = Tlast in Sprague-Dawley rat at 50 mg/kg, po measured upto 1440 mins by LC-MS/MS analysis; format: ADME, organism-based; settings: in vivo, 24 h
[23] = target: Cytochrome P450 3A4 (Homo sapiens, UniProt P08684); assay: Inhibition of CYP3A4 in human liver microsome using midazolam as substrate measured upto 50 uM incubated for 10 mins followed by NADPH addition incubated for 10 mins by LC/MS/MS analysis; format: ADME; settings: microsomes, 20 min
Sequence of Cytochrome P450 3A4 (P08684 whole entry): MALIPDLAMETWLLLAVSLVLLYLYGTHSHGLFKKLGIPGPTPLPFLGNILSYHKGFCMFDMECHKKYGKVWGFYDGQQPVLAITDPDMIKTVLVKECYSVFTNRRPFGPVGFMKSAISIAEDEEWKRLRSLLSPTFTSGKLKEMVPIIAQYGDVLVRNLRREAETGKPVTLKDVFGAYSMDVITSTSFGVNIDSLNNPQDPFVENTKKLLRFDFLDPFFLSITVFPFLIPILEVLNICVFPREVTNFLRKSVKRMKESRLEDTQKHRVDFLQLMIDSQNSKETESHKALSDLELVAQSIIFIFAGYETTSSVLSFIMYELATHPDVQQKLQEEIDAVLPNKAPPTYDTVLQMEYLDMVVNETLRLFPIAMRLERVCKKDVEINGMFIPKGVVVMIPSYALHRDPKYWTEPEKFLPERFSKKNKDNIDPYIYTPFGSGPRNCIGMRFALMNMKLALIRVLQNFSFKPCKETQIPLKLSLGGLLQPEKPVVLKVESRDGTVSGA

[24] = Metabolic stability in rat hepatocytes assessed as intrinsic clearance; format: ADME, cell-based, Hepatocyte; settings: read-out: CLH
[25] = Oral bioavailability in Sprague-Dawley rat at 20 mg/kg measured upto 1440 mins by LC-MS/MS analysis; format: ADME, organism-based; settings: in vivo
[26] = MRT (0 to infinitive) in Sprague-Dawley rat at 10 mg/kg, iv measured upto 1440 mins by LC-MS/MS analysis; format: ADME, organism-based; settings: in vivo
[27] = Apparent permeability across apical to basal side in human Caco-2 cells at pH 6.5/7.4 measured at 5 uM by LC-MS/MS analysis; format: ADME, cell-based; settings: Caco-2, pH 6.5
[28] = AUC (0 to last) in CD-1 (ICR) mouse at 50 mg/kg, po measured upto 1440 mins by LC-MS/MS analysis; format: ADME, organism-based; parameters: time < 1440 min, dose 50 mg/kg, route po; settings: in vivo
[29] = Aqueous solubility of the compound in pH 7.4 PBS buffer by HPLC-UV analysis; format: physicochemical

%AUCextra [1]: 0.84%
Activity [2]: 72%
%AUCextra [4]: 0.46%
inhibition (INH) [5]: Not Active
AUMC [6]: 4.85%
concentration at 0.5 h [7]: 482 ng/g
concentration at 2 h [8]: 46 ng/g
half-life [9]: 1.76 h
inhibition (INH) [10]: Not Active
Kdiss [11]: 0.007 s⁻¹
MRT inf [12]: 1.65 h
concentration at 0.5 h [13]: 43 ng/g
AUC(0-t) at 24 h [15]: 5000 ng·h/mL
concentration at 2 h [16]: 1370 ng/mL
Ka [17]: 2.29 10^6/M/s
AUMC [18]: 13.6%
clearance [19]: 33.2 mL/min/kg
inhibition (INH) [20]: Not Active
CLint scaled [21]: < 8.6 mL/min/kg
Tlast [22]: 24 h
inhibition (INH) [23]: Not Active
CLint scaled [24]: < 17 mL/min/kg
bioavailability [25]: 33%
MRT inf [26]: 0.7 h
Papp A→B at 5 µM [27]: 0.14 ×10⁻⁶ cm/s
AUC(0-t) at 24 h [28]: 8540 ng·h/mL
solubility [29]: 189 µM (≈ 75.7 µg/mL)
Structure (SMILES): CCn1c(=O)[nH]c(=O)c2c1nc(Cc1cn3cc(C)sc3n1)n2CC1COC1
Activity [3]: Non-Toxic
inhibition in vivo at 15 mg/kg [14]: 50%
